Laboratory results published in patent EP0156508A1, “Antifungal aerosol solution” (ORTHO PHARMACEUTICAL CORPORATION, priority 1984, dated 1985).
Read-outs that look alike come from different tables or passages of the source.

Assay: Solubility of miconazole nitrate in several common solvents
Assay type: physicochemical
From the text: The imidazole ethers in general and the miconazoles in particular have very low solubilities in most solvents suitable for use in topical pharmaceutical compositions such as in the treatment of fungal skin infections. The solubility of miconazole nitrate, for example, in several common solvents has been determined to be as follows: […]

Clc1ccc(COC(Cn2ccnc2)c2ccc(Cl)cc2Cl)c(Cl)c1.O=[N+]([O-])O (stereo not drawn) [miconazole nitrate, 1-[2,4-dichloro-β-(2,4-dichlorobenzyloxy)-phenethyl] imidazole nitrate]
solubility (Solvent: 40% PG/water, read-out: solubility): 1300 µg/mL
solubility (Solvent: HCl 0.1 N, read-out: solubility): 500 µg/mL
solubility (Solvent: NaOH): Insoluble
solubility (Solvent: Water, read-out: solubility): 300 µg/mL
solubility (organic solvent or mixture, Solvent: 2-Propanol, read-out: solubility): 1300 µg/mL
solubility (organic solvent or mixture, Solvent: Acetone, read-out: solubility): 3400 µg/mL
solubility (organic solvent or mixture, Solvent: Benzene, read-out: solubility): 500 µg/mL
solubility (organic solvent or mixture, Solvent: Chloroform, read-out: solubility): 3100 µg/mL
solubility (organic solvent or mixture, Solvent: Ethanol, read-out: solubility): 7600 µg/mL
solubility (organic solvent or mixture, Solvent: Ethyl Acetate, read-out: solubility): 700 µg/mL
solubility (organic solvent or mixture, Solvent: Hexane, read-out: solubility): 300 µg/mL
solubility (organic solvent or mixture, Solvent: Methanol, read-out: solubility): 15000 µg/mL
solubility (organic solvent or mixture, Solvent: Methyl Isobutylketone, read-out: solubility): 400 µg/mL
solubility (organic solvent or mixture, Solvent: PEG 300, read-out: solubility): 1300 µg/mL
solubility (organic solvent or mixture, Solvent: Propylene Glycol, read-out: solubility): 1500 µg/mL
solubility (organic solvent or mixture, Solvent: Tetrahydrofuran, read-out: solubility): 2000 µg/mL
